Source: patent publication US10214519B2, “Phosphatidylinositol 3-kinase inhibitors” (Gilead Sciences, Inc., priority 2016, dated 2019)

Target: PI3Kβ (Homo sapiens (Human), UniProt P42338)
Experiment: PI3K isoform TR-FRET enzymatic assay (PI3Kβ)
Format: biochemical
Conditions: 2× Km ATP, 30 minutes at 25° C.
Summary of the method: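 Heterodimeric recombinant PI3Kβ was incubated with compound 30 minutes at 25° C. Product was detected by TR-FRET competition with 10 nM labeled PIP3 for 35 nM Eu-GRP-1 PH domain after EDTA stop. Data were normalized to 1 μM wortmannin and DMSO, and IC50 was taken from a four-parameter fit.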

PI3Kβ, sequence (P42338 whole entry, canonical isoform): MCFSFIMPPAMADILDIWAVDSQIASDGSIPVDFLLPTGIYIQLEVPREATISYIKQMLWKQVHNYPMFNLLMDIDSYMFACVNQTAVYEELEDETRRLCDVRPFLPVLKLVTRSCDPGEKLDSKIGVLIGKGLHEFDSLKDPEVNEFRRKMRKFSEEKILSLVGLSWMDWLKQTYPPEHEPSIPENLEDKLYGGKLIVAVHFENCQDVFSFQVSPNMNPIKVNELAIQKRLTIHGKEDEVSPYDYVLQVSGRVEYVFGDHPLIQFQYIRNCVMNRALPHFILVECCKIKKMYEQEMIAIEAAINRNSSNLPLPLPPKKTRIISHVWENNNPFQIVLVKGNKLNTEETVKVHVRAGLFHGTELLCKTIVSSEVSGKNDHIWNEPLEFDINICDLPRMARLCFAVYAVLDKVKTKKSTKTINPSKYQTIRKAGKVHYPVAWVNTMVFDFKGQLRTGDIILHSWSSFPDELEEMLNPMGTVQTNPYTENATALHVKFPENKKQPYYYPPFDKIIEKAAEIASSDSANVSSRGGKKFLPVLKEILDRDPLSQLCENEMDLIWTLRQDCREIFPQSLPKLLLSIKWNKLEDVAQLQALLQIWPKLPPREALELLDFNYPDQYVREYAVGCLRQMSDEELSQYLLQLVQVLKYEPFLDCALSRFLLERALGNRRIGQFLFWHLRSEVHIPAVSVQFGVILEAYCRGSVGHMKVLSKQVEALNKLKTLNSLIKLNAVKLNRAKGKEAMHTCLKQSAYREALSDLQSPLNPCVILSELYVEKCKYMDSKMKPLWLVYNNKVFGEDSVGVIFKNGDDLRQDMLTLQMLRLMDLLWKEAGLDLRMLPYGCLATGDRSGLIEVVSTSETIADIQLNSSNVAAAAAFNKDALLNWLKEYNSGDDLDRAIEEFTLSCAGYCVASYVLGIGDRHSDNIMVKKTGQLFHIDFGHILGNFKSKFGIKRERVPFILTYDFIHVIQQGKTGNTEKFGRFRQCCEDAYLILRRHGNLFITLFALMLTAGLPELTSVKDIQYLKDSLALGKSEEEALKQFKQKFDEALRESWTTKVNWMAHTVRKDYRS
PI3Kβ, sequence (P27986 whole entry partner, canonical isoform): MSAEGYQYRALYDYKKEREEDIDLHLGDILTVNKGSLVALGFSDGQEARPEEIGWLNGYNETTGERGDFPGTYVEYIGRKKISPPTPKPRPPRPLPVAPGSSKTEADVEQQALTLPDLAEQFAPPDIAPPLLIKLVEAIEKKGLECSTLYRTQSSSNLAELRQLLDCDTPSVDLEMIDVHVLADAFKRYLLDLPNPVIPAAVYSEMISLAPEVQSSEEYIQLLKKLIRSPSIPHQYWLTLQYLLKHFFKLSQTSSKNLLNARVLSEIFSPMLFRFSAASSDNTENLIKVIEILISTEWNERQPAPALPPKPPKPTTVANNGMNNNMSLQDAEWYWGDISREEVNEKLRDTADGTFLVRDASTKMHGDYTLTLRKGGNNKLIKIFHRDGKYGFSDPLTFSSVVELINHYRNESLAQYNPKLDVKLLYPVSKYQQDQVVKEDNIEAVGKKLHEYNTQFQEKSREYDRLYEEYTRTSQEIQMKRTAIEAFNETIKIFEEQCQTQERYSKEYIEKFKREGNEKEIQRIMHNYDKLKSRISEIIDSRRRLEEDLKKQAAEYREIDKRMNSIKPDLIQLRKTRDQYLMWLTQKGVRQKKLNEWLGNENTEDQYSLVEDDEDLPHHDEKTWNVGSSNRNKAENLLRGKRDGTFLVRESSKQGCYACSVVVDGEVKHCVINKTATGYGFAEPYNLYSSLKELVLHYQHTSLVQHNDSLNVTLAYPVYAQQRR

Row | SMILES | IC50
1 | Clc1cccc2c(-n3c(CC4CC4)nc4c(-c5nnc[nH]5)cc(N5CCOCC5)cc43)ccnc12 [Example 32, 4-(1-(8-chloroquinolin-4-yl)-2-(cyclopropylmethyl)-4-(4H-1,2,4-triazol-3-yl)-1H-benzo[d]imidazol-6-yl)morpholine] | 9 nM
2 | Cc1nc2c(-c3nnc[nH]3)cc(N3CCOCC3)cc2n1-c1c(Cl)cnc2c(F)cccc12 [Example 27, 4-[3-(3-chloro-8-fluoroquinolin-4-yl)-2-methyl-7-(4H-1,2,4-triazol-3-yl)benzimidazol-5-yl]morpholine] | 56 nM
3 | Cc1nc2c(-c3cnco3)cc(N3CCOCC3)cc2n1-c1ccnc2c(Cl)cccc12 [Example 277, 4-[3-(8-chloroquinolin-4-yl)-2-methyl-7-(1,3-oxazol-5-yl)benzimidazol-5-yl]morpholine] | 620 nM
4 | Cc1nc2c(-c3cc[nH]n3)cc(N3CCOCC3)cc2n1-c1ccnc2c(Cl)cccc12 [Example 262, 4-[3-(8-chloroquinolin-4-yl)-2-methyl-7-(1H-pyrazol-3-yl)benzimidazol-5-yl]morpholine] | 27 nM
5 | CCc1c(C)nc2ccccc2c1-n1cnc2c(-c3nnc[nH]3)cc(N3CCOCC3)cc21 [Example 71, 4-[3-(3-ethyl-2-methylquinolin-4-yl)-7-(4H-1,2,4-triazol-3-yl)benzimidazol-5-yl]morpholine] | 23 nM
6 | Cc1nc2c(-c3nnn[nH]3)cc(N3CCOCC3)cc2n1-c1ccnc2c(Cl)cccc12 [Example 161] | 23 nM
7 | CCCc1nc2c(-c3cnc(C)[nH]3)cc(N3CCOCC3)cc2n1-c1ccnc2c(Cl)cccc12 [Example 212, 4-[3-(8-chloroquinolin-4-yl)-7-(2-methyl-1H-imidazol-5-yl)-2-propylbenzimidazol-5-yl]morpholine] | 34 nM
8 | Cc1nc2c(-c3nnco3)cc(N3CCOCC3)cc2n1-c1ccnc2c(Cl)cccc12 [Example 162, 4-(1-(8-chloroquinolin-4-yl)-2-methyl-4-(1,3,4-oxadiazol-2-yl)-1H-benzo[d]imidazol-6-yl)morpholine] | 77 nM
9 | Cc1nc2c(-c3nnc(Cl)[nH]3)cc(N3CCOCC3)cc2n1-c1ccnc2c(Cl)c(F)ccc12 [Example 171, 4-(4-(5-chloro-4H-1,2,4-triazol-3-yl)-1-(8-chloro-7-fluoroquinolin-4-yl)-2-methyl-1H-benzo[d]imidazol-6-yl)morpholine] | 100 nM
10 | CCc1nc2c(-c3nnc(C)[nH]3)cc(N3CCOCC3)cc2n1-c1c(Cl)cnc2c(Cl)cccc12 (atropisomer, axis not shown) [Compound 348, 4-[3-(3,8-dichloroquinolin-4-yl)-2-ethyl-7-(5-methyl-4H-1,2,4-triazol-3-yl)benzimidazol-5-yl]morpholine] | 13 nM
11 | Cc1nnc(-c2cc(N3CCOCC3)cc3c2nc(C)n3-c2ccnc3c(F)ccc(F)c23)[nH]1 (atropisomer, axis not shown) [Compound 350, (S)-4-(1-(5,8-difluoroquinolin-4-yl)-2-methyl-4-(5-methyl-4H-1,2,4-triazol-3-yl)-1H-benzo[d]imidazol-6-yl)morpholine] | 10 nM
12 | Cc1nc2c(-c3nccs3)cc(N3CCOCC3)cc2n1-c1ccnc2c(Cl)ccc(F)c12 [Example 240, 4-[3-(8-chloro-5-fluoroquinolin-4-yl)-2-methyl-7-(1,3-thiazol-2-yl)benzimidazol-5-yl]morpholine] | 2 nM
13 | CCc1nc2c(-c3nnc(C)[nH]3)cc(N3CCOCC3)cc2n1-c1ccnc2c(Cl)cccc12 [Example 133, 4-[3-(8-chloroquinolin-4-yl)-2-ethyl-7-(5-methyl-4H-1,2,4-triazol-3-yl)benzimidazol-5-yl]morpholine] | 21 nM
14 | Cc1nc2c(-c3ccnnc3)cc(N3CCOCC3)cc2n1-c1ccnc2c(Cl)cccc12 [Example 314, 4-(1-(8-chloroquinolin-4-yl)-2-methyl-4-(pyridazin-4-yl)-1H-benzo[d]imidazol-6-yl)morpholine] | 7800 nM
15 | Clc1cccc2c(-n3c(-c4cncs4)nc4c(-c5nnc[nH]5)cc(N5CCOCC5)cc43)ccnc12 [Example 119, 4-[3-(8-chloroquinolin-4-yl)-2-(1,3-thiazol-5-yl)-7-(4H-1,2,4-triazol-3-yl)benzimidazol-5-yl]morpholine] | 24 nM
16 | Cc1nc2c(-c3n[nH]c(=S)o3)cc(N3CCOCC3)cc2n1-c1ccnc2cc(F)ccc12 [Example 164, 5-(1-(7-fluoroquinolin-4-yl)-2-methyl-6-morpholino-1H-benzo[d]imidazol-4-yl)-1,3,4-oxadiazole-2(3H)-thione] | 130 nM
17 | Cc1nc[nH]c1-c1cc(N2CCOCC2)cc2c1nc(C)n2-c1ccnc2c(Cl)cccc12 [Example 177, 4-[3-(8-chloroquinolin-4-yl)-2-methyl-7-(4-methyl-1H-imidazol-5-yl)benzimidazol-5-yl]morpholine] | 230 nM

Row | SMILES | IC50
18 | CCc1nc2c(-c3ncco3)cc(N3CCOCC3)cc2n1-c1ccnc2c(F)ccc(F)c12 [Example 217, 4-[3-(5,8-difluoroquinolin-4-yl)-2-ethyl-7-(1,3-oxazol-2-yl)benzimidazol-5-yl]morpholine] | 9 nM
19 | Fc1ccc(F)c2c(-n3c(C4CC4)nc4c(-c5cnc(Cl)[nH]5)cc(N5CCOCC5)cc43)ccnc12 (atropisomer, axis not shown) [Compound 342, 4-[7-(2-chloro-1H-imidazol-5-yl)-2-cyclopropyl-3-(5,8-difluoroquinolin-4-yl)benzimidazol-5-yl]morpholine] | > 10000 nM
20 | Cc1nnc(-c2cc(N3CCOCC3)cc3c2nc(C)n3-c2ccnc3c(Cl)ccc(F)c23)[nH]1 [Example 94, 4-[3-(8-chloro-5-fluoroquinolin-4-yl)-2-methyl-7-(5-methyl-4H-1,2,4-triazol-3-yl)benzimidazol-5-yl]morpholine] | 26 nM
21 | CCc1nc2c(F)cccc2c(-n2c(C)nc3c(-c4nc(C)n[nH]4)cc(N4CCOCC4)cc32)c1C [Example 80, 4-[3-(2-ethyl-8-fluoro-3-methylquinolin-4-yl)-2-methyl-7-(3-methyl-1H-1,2,4-triazol-5-yl)benzimidazol-5-yl]morpholine] | 61 nM
22 | Fc1ccc2c(-n3cnc4c(-c5nnc[nH]5)cc(N5CCOCC5)cc43)ccnc2c1 [Example 53, 4-(l-(7-fluoroquinolin-4-yl)-4-(4H-1,2,4-triazol-3-yl)-1H-benzo[d]imidazol-6-yl)morpholine] | 15 nM
23 | Cc1nnc(-c2cc(N3CCOCC3)cc3c2nc(-c2cccnc2)n3-c2ccnc3c(Cl)cccc23)[nH]1 [Example 23, 4-(1-(8-chloroquinolin-4-yl)-4-(5-methyl-4H-1,2,4-triazol-3-yl)-2-(pyridin-3-yl)-1H-benzo[d]imidazol-6-yl)morpholine] | 390 nM
24 | Cc1nc2c(-c3nnc(Cl)[nH]3)cc(N3CCOCC3)cc2n1-c1ccnc2c(Cl)cccc12 (atropisomer, axis not shown) [Compound 358, 4-[3-(8-chloroquinolin-4-yl)-7-(5-chloro-4H-1,2,4-triazol-3-yl)-2-methylbenzimidazol-5-yl]morpholine] | 10 nM
25 | CC(C)Cc1nc2c(-c3nnc[nH]3)cc(N3CCOCC3)cc2n1-c1ccnc2c(Cl)cccc12 [Example 50, 4-(1-(8-chloroquinolin-4-yl)-2-isobutyl-4-(4H-1,2,4-triazol-3-yl)-1H-benzo[d]imidazol-6-yl)morpholine] | 16 nM
26 | Clc1cccc2c(-n3c(-c4ccncc4)nc4c(-c5nnc[nH]5)cc(N5CCOCC5)cc43)ccnc12 [Example 15, 4-(1-(8-chloroquinolin-4-yl)-2-(pyridin-4-yl)-4-(4H-1,2,4-triazol-3-yl)-1H-benzo[d]imidazol-6-yl)morpholine] | 49 nM
27 | Cc1nc2c(-c3cccs3)cc(N3CCOCC3)cc2n1-c1ccnc2c(Cl)cccc12 [Example 271, 4-[3-(8-chloroquinolin-4-yl)-2-methyl-7-thiophen-2-ylbenzimidazol-5-yl]morpholine] | 46 nM
28 | CCCc1nc2c(-c3nnc[nH]3)cc(N3CCOCC3)cc2n1-c1ccnc2c(F)cccc12 (atropisomer, axis not shown) [Compound 355, 4-[3-(8-fluoroquinolin-4-yl)-2-propyl-7-(4H-1,2,4-triazol-3-yl)benzimidazol-5-yl]morpholine] | 2500 nM
29 | Cc1nc2c(-c3nnc[nH]3)cc(N3CCOCC3)cc2n1-c1ccnc2c(Cl)cccc12 (atropisomer, axis not shown) [Compound 361, 4-[3-(8-chloroquinolin-4-yl)-2-methyl-7-(4H-1,2,4-triazol-3-yl)benzimidazol-5-yl]morpholine] | 2 nM
30 | Cc1nc2c(-c3ncco3)cc(N3CCOCC3)cc2n1-c1ccnc2c(F)cccc12 (atropisomer, axis not shown) [Example 340, 4-[3-(8-fluoroquinolin-4-yl)-2-methyl-7-(1,3-oxazol-2-yl)benzimidazol-5-yl]morpholine] | 1900 nM
31 | CCc1c(C)nc2ccccc2c1-n1c(C)nc2c(-c3nnc[nH]3)cc(N3CCOCC3)cc21 [Example 62, 4-[3-(3-ethyl-2-methylquinolin-4-yl)-2-methyl-7-(4H-1,2,4-triazol-3-yl)benzimidazol-5-yl]morpholine] | 23 nM
32 | CCCc1nc2c(-c3nnc[nH]3)cc(N3CCOCC3)cc2n1-c1ccnc2ccccc12 [Example 41, 4-(2-propyl-1-(quinolin-4-yl)-4-(4H-1,2,4-triazol-3-yl)-1H-benzo[d]imidazol-6-yl)morpholine] | 21 nM
33 | Clc1cccc2c(-n3c(-c4ccn[nH]4)nc4c(-c5nnc[nH]5)cc(N5CCOCC5)cc43)ccnc12 [Example 117, 4-[3-(8-chloroquinolin-4-yl)-2-(1H-pyrazol-5-yl)-7-(4H-1,2,4-triazol-3-yl)benzimidazol-5-yl]morpholine] | 15 nM
34 | Cc1nc2c(-c3ncco3)cc(N3CCOCC3)cc2n1-c1ccnc2c(Cl)cccc12 [Example 204, 4-[3-(8-chloroquinolin-4-yl)-2-methyl-7-(1,3-oxazol-2-yl)benzimidazol-5-yl]morpholine] | 8 nM
